PubChem BioAssay (NCI)
“And” between values parts separate entries of the source, which are not always exact repeats. Identical values can stand only once.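 1) Cells in 96-well plates. 2) Compound, 48 h, 5 concentrations. 3) Linear interpolation between surrounding doses. 4) Unreached endpoint = highest concentration. Abbreviation: GI50, concentration required for 50% inhibition of growth. TGI: concentration producing complete growth inhibition.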

Key:
Assay in all cases: NCI tumour cell line growth inhibition, 48 h
DLD-1 colon = tested on: DLD-1 colon
MDA-MB-435 = tested on: MDA-MB-435
DU-145 prostate = tested on: DU-145 prostate
KM20L2 colon = tested on: KM20L2 colon
MDA-N = tested on: MDA-N

## C=CCC1=C2CCCCC2CCC1=O (configuration not stated)
DLD-1 colon
  TGI: > 100 µM

## O=C1NC(=N[C@@H]2C[C@H]2c2ccccc2)S/C1=C\c1ccc2ncccc2c1
MDA-MB-435
  GI50: 688 nM
  TGI: 2.85 µM
DU-145 prostate
  GI50: 1.94 µM
  TGI: 24.9 µM

## CCCCN(CCCC)C(=O)C(=O)C(C(=O)C(=O)OC)c1nc2ccccc2o1 (configuration not stated)
DLD-1 colon
  TGI: > 100 µM

## COc1cc(/C=C(\C)c2ccc3c(c2)OCO3)cc(OC)c1OC
DLD-1 colon
  TGI: > 100 µM
KM20L2 colon
  TGI: > 100 µM

## Cc1cc2c(=O)cc(-c3ccc(C(=O)O)cc3)oc2c(C(N)=O)c1C
DLD-1 colon
  TGI: > 100 µM
KM20L2 colon
  TGI: > 100 µM

## CN1C[C@@H]2CC(=O)CC[C@@H]2C[C@H]1C#N
DLD-1 colon
  TGI: > 100 µM
KM20L2 colon
  TGI: > 100 µM

## Cc1cccc2c1NC(=O)[C@@H](NC(=O)[C@H](CCC(F)(F)F)[C@H](CCC(F)(F)F)C(N)=O)N=C2c1cccc(F)c1
MDA-MB-435
  GI50: > 100000 nM
  TGI: > 100 µM
DU-145 prostate
  GI50: 71.4 µM
  TGI: > 100 µM

## COc1cc2cc(Oc3ccc(NC(=O)Nc4ccc(F)c(C(F)(F)F)c4)cc3)c(C)nc2cc1OCCN1CCOCC1
MDA-MB-435
  GI50: 1910 nM
  TGI: 3.9 µM
DU-145 prostate
  GI50: 3.5 µM
  TGI: 15.2 µM

## N#CC1(C#N)C2C=CC(C3CC=CC32)C1(C#N)C#N (configuration not stated)
MDA-MB-435
  GI50: 9780 nM
  TGI: 18.8 µM
DU-145 prostate
  TGI: 16.7 µM

## CCC(CO)COC(=O)/C=C/C(=O)OCC(CC)CO (configuration not stated)
DLD-1 colon
  TGI: > 100 µM
KM20L2 colon
  TGI: > 100 µM

## CCOC(=O)Nc1ccc2c3c(cccc13)-c1ccccc1-2
MDA-MB-435
  GI50: 862 nM
  TGI: 3.54 µM
DU-145 prostate
  GI50: 7.56 µM
  TGI: > 100 µM

## O=C(O)c1ccc(NCn2nc(-c3ccccc3O)oc2=S)cc1O
MDA-MB-435
  GI50: > 100000 nM
  TGI: > 100 µM

## O=[N+]([O-])c1cccc(C=NC23CC4CC(CC(C4)C2)C3)c1
DLD-1 colon
  TGI: > 100 µM
KM20L2 colon
  TGI: > 100 µM

## COc1c(O)cc2c(c1CC=C(C)C)OC(=O)c1c(cc(O)c(CC=C(C)C)c1O)O2
MDA-MB-435
  GI50: 4110 nM
  TGI: 7.94 µM
DU-145 prostate
  GI50: 4.18 µM
  TGI: 7.62 µM

## COc1ccc(-c2nc(Nc3ccc(F)cc3)nc(Nc3ccc4c(c3)nc(C)n4Cc3ccccc3)n2)cc1
MDA-MB-435
  GI50: 3270 nM
  TGI: > 100 µM
DU-145 prostate
  GI50: 7.59 µM
  TGI: > 100 µM

## N#C/C(=C\c1ccc([N+](=O)[O-])cc1)n1nnc2cc(F)c(F)cc21
MDA-MB-435
  GI50: 2320 nM
  TGI: 5.85 µM
DU-145 prostate
  GI50: 1.72 µM
  TGI: 3.14 µM

## CC(C)[C@]12O[C@H]1[C@@H]1O[C@]13[C@]1(O[C@H]1C[C@H]1C4=C(CC[C@@]13C)C(=O)OC4)[C@@H]2OC(=O)OC(C)(C)C
MDA-MB-435
  GI50: 12.2 nM
  TGI: 0.0478 µM
DU-145 prostate
  GI50: 0.0204 µM
  TGI: > 100 µM

## COc1ccc(/C=C/C(=O)c2ccc(B(O)O)cc2)cc1O
MDA-MB-435
  GI50: 2110 nM
  TGI: 5.5 µM
DU-145 prostate
  GI50: 6.21 µM
  TGI: 28.9 µM

## CN(CC(=O)O)S(=O)(=O)c1ccc(Cl)cc1
DLD-1 colon
  TGI: > 100 µM
KM20L2 colon
  TGI: > 100 µM

## S=c1sc2sc(=S)sc2s1
DLD-1 colon
  TGI: > 100 µM
KM20L2 colon
  TGI: > 100 µM

## O=C([CH-]C(=O)c1ccccc1)c1ccccc1.O=C([CH-]C(=O)c1ccccc1)c1ccccc1.[CH2-]CCC.[CH2-]CCC.[Sn+4]
KM20L2 colon
  GI50: 1570 nM
  TGI: 3.11 µM

## O=C(O)c1cc(C(=O)C(=O)c2cc(C(=O)O)c(O)c3ccccc23)c2ccccc2c1O
MDA-MB-435
  TGI: > 100 µM
DU-145 prostate
  TGI: > 100 µM
MDA-N
  TGI: > 100 µM

## CC12OC(C(=O)C13CC3)C1C(=O)c3cccc(O)c3C(=O)C12 (configuration not stated)
MDA-MB-435
  GI50: 16900 nM
  TGI: > 57.7 µM
DU-145 prostate
  GI50: 15.3 µM
  TGI: 56.2 µM

## COC(=O)Nc1nc2ccc(C(=O)C3CC3)cc2[nH]1
MDA-MB-435
  GI50: 134 nM
  TGI: 0.324 µM
DU-145 prostate
  GI50: 0.256 µM
  TGI: 1.11 µM

## S=C1NC(c2ccccc2)=NC(Cc2ccccc2)(c2ccccc2)N1c1ccccc1 (configuration not stated)
DLD-1 colon
  TGI: > 100 µM
KM20L2 colon
  TGI: > 100 µM

## CC(=O)NS(=O)(=O)c1ccc(-n2nc(-c3ccccc3)cc2-c2cc(O)ccc2O)cc1
MDA-MB-435
  GI50: > 100000 nM
  TGI: > 100 µM

## COC(=O)CCC(=O)C(CC(=O)OC)C(=O)CCC(=O)NCCc1ccccc1 (configuration not stated)
KM20L2 colon
  TGI: > 100 µM

## OC1CCC(COC(c2ccccc2)(c2ccccc2)c2ccccc2)O1 (configuration not stated)
MDA-MB-435
  TGI: 39.9 µM
DU-145 prostate
  TGI: 38.3 µM
MDA-N
  TGI: 34.5 µM

## O=C1/C(=C\c2ccc(Cl)cc2)CN(C(=O)c2ccccc2)C/C1=C\c1ccc(Cl)cc1
MDA-MB-435
  GI50: 2580 nM
  TGI: 8.04 µM
DU-145 prostate
  GI50: 4.12 µM
  TGI: > 56.4 µM

## COC(=O)C(=O)C(C(=O)C(=O)Nc1ccccc1C(N)=O)c1nc2ccc([N+](=O)[O-])cc2[nH]c1=O (configuration not stated)
DLD-1 colon
  TGI: > 100 µM
KM20L2 colon
  TGI: > 100 µM

## ClCCN(CCCl)c1ccc(OCc2ccccc2)cc1
MDA-MB-435
  GI50: 8160 nM
  TGI: 32.6 µM
DU-145 prostate
  GI50: 3.16 µM
  TGI: 27.6 µM

## Cn1cnc([N+](=O)[O-])c1Sc1nccn1-c1ccccc1
DLD-1 colon
  TGI: > 100 µM
KM20L2 colon
  TGI: > 100 µM

## CCOC(=O)Cc1csc(Nc2nc(O)c(C3=c4ccccc4=NC3=O)s2)n1
MDA-MB-435
  GI50: 40900 nM
  TGI: > 100 µM
DU-145 prostate
  GI50: 24.6 µM
  TGI: 56.7 µM

## CCOC(=O)Nc1nc(-c2ccccc2)c(C)s1
MDA-MB-435
  TGI: > 100 µM
DU-145 prostate
  TGI: > 100 µM
MDA-N
  TGI: > 100 µM

## NS(=O)(=O)c1ccc(N=Nc2c(O)[nH]c3cccc(CCc4ccncc4)c23)cc1
MDA-MB-435
  GI50: > 25000 nM
  TGI: > 25 µM
DU-145 prostate
  GI50: > 25 µM
  TGI: > 25 µM

## N#CCC(=O)N/N=C(/C(=O)Nc1ccccc1)C1C(=O)N(c2ccccc2)N=C1N (configuration not stated)
DLD-1 colon
  TGI: > 100 µM
KM20L2 colon
  TGI: > 100 µM

## Cc1cc2c(=O)cc(-c3ccc(Cl)c(Cl)c3)oc2c(C(=O)O)c1C
DLD-1 colon
  TGI: > 100 µM
KM20L2 colon
  TGI: > 100 µM

## Nc1nc(N)c2cc(Sc3ccc(Cl)cc3)ccc2n1
MDA-MB-435
  GI50: 403 nM
  TGI: 1.91 µM
DU-145 prostate
  GI50: 1.9 µM
  TGI: 14.6 µM

## CN1C(=O)CNS1(=O)=O
DLD-1 colon
  TGI: > 100 µM

## CCOc1ccc(N=C2NC(=O)C(CC(=O)Nc3ccc(Cl)cc3Cl)S2)cc1 (configuration not stated)
DLD-1 colon
  TGI: > 100 µM
KM20L2 colon
  TGI: > 100 µM

## COC(=O)CC12CC(NC(=O)c3csc([C@@H](C[C@H](C(C)C)N(C)C(=O)[C@@H](NC(=O)[C@H]4CCCCN4C)C(C)C)OC(C)=O)n3)(C1)C2
MDA-MB-435
  GI50: 0.341 nM and 3.33 nM
  TGI: 0.00165 µM and 0.00449 µM
DU-145 prostate
  GI50: 0.00352 µM and 0.00825 µM

## Cc1ccccc1C(C#N)/C(=N/NC(N)=S)C(=O)Nc1c(C)cccc1C (configuration not stated)
DLD-1 colon
  TGI: > 100 µM
KM20L2 colon
  TGI: > 100 µM
